Series [1] deals with urease. As to conditions: cited from earlier work.
The next series addresses Jack bean urease (Canavalia ensiformis, UniProt P07374). Briefly: Screening of urease inhibitory activities (indophenol method, enzymatic). Format: biochemical. As for the experimental part: Urease inhibition effects of the synthesized compounds were determined according to the previously reported procedure[37]–[39]. Briefly, 100 μL of the synthesized compounds at different concentrations was added to 850 μL of urea as substrate and 50 μL urease (3 mg/mL) in phosphate buffer, pH = 7.4). After 30 min, to 100 μL of the incubated solution, 500 μL of solution I (5.0 g phenol and 25.0 mg sodium nitroprusside in 500 mL water) was added, followed by the addition of 500 μL of solution II (2.5 g sodium hydroxide, 4.2 mL sodium hypochlorite, and 5% chlorine in 500 mL water) which was further incubated at 37 °C for 30 min. The absorbance of blue-colored indophenol of each cell is related to the percentage of enzyme inhibition using the following equation at 625 nm. The IC50 values for all synthesized compounds were calculated using GraphPad Prism software (GraphPad Software, Inc., San Diego, CA).

In another series the test system is C. neoformans (H99). In words: Anti-ureolytic activity, colorimetric urea broth microdilution. It counts as cell-based, Cryptococcus neoformans. The following applies: read after three days, means ± SD of 3 independent experiments; for IC50: Cryptococcus neoformans, 72 h. Here is the method: (§1) The colorimetric microdilution technique using urea broth media (Merck) was used to examine the ureolytic activity of C. neoformans (H99), and clinical isolate of P. mirabilis treated with tested substances (supplemented with glucose; pH = 6 for C. neoformans). Compounds in the concentration range of 1 to 512 μg/mL were exposed to ureolytic microorganisms, and the color of the medium was evaluated visually and spectroscopically at 560 nm after three days for C. neoformans and 24 h for P. mirabilis. The positive control, which included ureolytic bacteria but no drugs, changed color from yellow to dark pink or magenta. This shifts, allowing the determination of the inhibitory activity of compounds against the urease activity of organisms even without a microliter plate reader[45],[46].
In general terms: Dilution methods test growth across graded concentrations, often in twofold steps.

A further series deals with P. mirabilis. The description is as above. It counts as cell-based, Proteus mirabilis. The following applies: Proteus mirabilis, read after 24 h, means ± SD of 3 independent experiments, read-out: urease inhibitory activity IC50 (µg/mL) ± SD. As for the experimental part: as §1
In another series the test system is Proteus mirabilis. In words: In vitro antimicrobial activity, CLSI microbroth dilution (bacteria). Format: cell-based. As to conditions: clinical isolate, read-out: MIC. As for the experimental part:
M27-A3 for yeasts). The compounds were diluted, and stock solutions of 20 mg/mL in DMSO were prepared. Mueller-Hinton Broth (HiMedia) and RPMI-1640 (Sigma) were prepared as recommended for antimicrobial susceptibility testing of bacterial and fungal strains, respectively. Two-fold dilutions were made in the range of 1-512 μg/mL for tested compounds. […] All experiments were performed in duplicates.

The test system of series [2] is Cryptococcus neoformans (H99). Briefly: In vitro antimicrobial activity, CLSI microbroth dilution (yeast). The following applies: for MIC: read-out: MIC. Format: cell-based. Here is the method: The antimicrobial activities of all derivatives against C. neoformans (H99), and clinical isolate of P. mirabilisas urease positive microorganism, were tested as recommended by the Clinical and Laboratory Standards Institute (CLSI) (M07-A9 for bacteria; M27-A3 for yeasts). The compounds were diluted, and stock solutions of 20 mg/mL in DMSO were prepared. Mueller–Hinton Broth (HiMedia) and RPMI-1640 (Sigma) were prepared as recommended for antimicrobial susceptibility testing of bacterial and fungal strains, respectively. Two-fold dilutions were made in the range of 1–512 μg/mL for tested compounds. The microbroth dilution test was accomplished using a 96-well microtiter plate containing growth control (drug free wellls) and sterility control (only broth media). The antimicrobial susceptibility test was accomplished by adding a cell suspension adjusted to the 0.5 McFarland standard (1–2 × 10^8 CFU/mL for bacterial strains; 1–5 × 10^6 cells/mL for yeast) to different concentrations of tested compounds. […] All experiments were performed in duplicates.

For series [3], the target named is urease (Canavalia ensiformis, UniProt P07374). Briefly: Kinetic study of urease inhibition (Lineweaver–Burk). Format: biochemical, Jack bean. As for the experimental part:
The kinetic study for the inhibition of urease by compound 6a was carried out using four different concentrations of inhibitor. Compound 6a was tested at […] concentrations against urease for the kinetic study. The Lineweaver–Burk reciprocal plot was constructed by plotting 1/V against 1/[S] at variable concentrations of the substrate urea (3.12 to 100 mM). The inhibition constant Ki was calculated by the plot of slopes versus the corresponding concentrations of compound 6a.

Where [4] appears, read: C. neoformans, read-out: urease inhibitory activity IC50 (µg/mL) ± SD.
Setting [5] is: read-out: urease inhibitory activity IC50 (µg/mL) ± SD, C. neoformans.

≈ marks a conversion by molar mass, not a printed value. Read-outs that look alike come from different tables or passages of the source.

Jack bean urease, sequence (P07374 whole entry, looked up): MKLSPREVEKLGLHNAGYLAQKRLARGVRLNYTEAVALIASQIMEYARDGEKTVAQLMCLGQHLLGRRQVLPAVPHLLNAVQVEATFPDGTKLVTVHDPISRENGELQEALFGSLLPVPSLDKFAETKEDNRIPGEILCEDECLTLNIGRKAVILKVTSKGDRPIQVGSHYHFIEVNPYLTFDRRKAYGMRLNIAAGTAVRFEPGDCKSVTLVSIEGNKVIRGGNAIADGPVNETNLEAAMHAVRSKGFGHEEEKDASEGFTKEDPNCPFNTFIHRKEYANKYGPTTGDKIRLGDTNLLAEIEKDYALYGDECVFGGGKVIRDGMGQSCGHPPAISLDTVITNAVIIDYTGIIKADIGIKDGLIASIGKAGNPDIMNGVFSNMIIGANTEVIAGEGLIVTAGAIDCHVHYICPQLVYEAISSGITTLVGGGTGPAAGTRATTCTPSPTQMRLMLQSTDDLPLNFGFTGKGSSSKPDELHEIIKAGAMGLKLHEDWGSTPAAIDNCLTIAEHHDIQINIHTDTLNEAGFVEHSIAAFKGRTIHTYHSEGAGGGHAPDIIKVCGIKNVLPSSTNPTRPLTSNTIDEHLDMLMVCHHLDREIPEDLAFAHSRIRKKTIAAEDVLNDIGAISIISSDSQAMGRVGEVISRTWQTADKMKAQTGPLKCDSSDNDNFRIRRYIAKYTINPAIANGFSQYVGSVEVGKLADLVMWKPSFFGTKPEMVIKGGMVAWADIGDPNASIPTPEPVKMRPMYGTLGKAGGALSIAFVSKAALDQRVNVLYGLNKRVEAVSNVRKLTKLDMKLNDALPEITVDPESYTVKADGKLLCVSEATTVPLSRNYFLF
urease (Canavalia ensiformis, UniProt P07374), sequence (P07374 whole entry, looked up): as above

Turning to `Cc1cccc(C)c1Nc1nnc(-c2ccc(Cl)cc2)s1` [D], the IC50 in the series on urease [1] (urease, read-out: IC50) was 214.7 ± 0.16 µM.

Turning to `Cc1ccc(-n2c(C(O)c3ccccc3)n[nH]c2=S)cc1` (centres unmarked) [A], the IC50 in the series with urease [1] (urease, read-out: IC50) was 16.7 ± 0.178 µM.

`Cc1ncc([N+](=O)[O-])n1Cc1cn(Cc2ccc(F)cc2)nn1` [C]: the IC50 with urease [1] (urease, read-out: IC50) is 1.98 ± 0.25 µM.

Regarding `Brc1cccc(CSc2nn3c(-c4ccccc4)nnc3s2)c1` [Compound 6j, 6-((3-bromobenzyl)thio)-3-phenyl-[1,2,4]triazolo[3,4-b][1,3,4]thiadiazole], the melting point – broadly, the temperature, or range, at which the solid turns liquid – lay within 225 to 227 °C. Besides, the IC50 on Jack bean urease came out at 1.05 ± 0.34 µM. In the series with C. neoformans (H99) (setting [4]), the IC50 stood at 111 ± 4.8 µg/mL (≈ 276 µM). Besides, in the series on P. mirabilis, the IC50 was determined as 112 ± 6.9 µg/mL (≈ 278 µM). Moreover, the MIC (as a rule, the least concentration at which growth counts as inhibited) in the series with Proteus mirabilis came out at 256 mg/L (≈ 635 µM). In series [2], the MIC was greater than 256 mg/L.

For the molecule `CCNc1nnc(Cc2nc3ccccc3c(=O)n2Cc2ccc(F)cc2)s1` [E], the IC50 in the series with urease [1] (urease) is 1.88 ± 0.17 mg/L.

Consider `COc1ccc(NC(=O)NCc2cn(Cc3ccc(Cl)cc3Cl)nn2)cc1` [B], for which the IC50 in the series with urease [1] (urease, read-out: IC50) is 22.81 ± 0.05 µM.

Take `Clc1cccc(CSc2nn3c(-c4ccccc4)nnc3s2)c1` [Compound 6f, 6-((3-chlorobenzyl)thio)-3-phenyl-[1,2,4]triazolo[3,4-b][1,3,4]thiadiazole]: the melting point was 216 to 218 °C. Also, the IC50 at Jack bean urease was determined as 1.25 ± 0.19 µM. Also, the IC50 in the series on C. neoformans (H99) (setting [4]) was determined as 87.5 ± 8.1 µg/mL (≈ 244 µM). In addition, in the series on P. mirabilis, the IC50 was 73.2 ± 5.5 µg/mL (≈ 204 µM). For the same molecule, in the series with Proteus mirabilis, the MIC was 256 mg/L (≈ 713 µM). Besides, in series [2], the “MFC/MBC” value is 2 mg/L (≈ 5.57 µM) and the MIC came out at 1 mg/L (≈ 2.79 µM).

Turning to `O=C(NC1CCCCC1)C(c1cccs1)N(C(=O)CSc1nnc(-c2ccc([N+](=O)[O-])o2)s1)c1ccccc1` (centres unmarked) [F], in the series with urease [1], the “improvement in the inhibitory potency against urease compared to thiourea” value is recorded as “tenfold”. For the same molecule, the mode of inhibition entry with urease [1] (urease) is listed as “non-competitive”.

`c1ccc(CSc2nn3c(-c4ccccc4)nnc3s2)cc1` [Compound 6a, 6-(benzylthio)-3-phenyl-[1,2,4]triazolo[3,4-b][1,3,4]thiadiazole] registered a melting point of 217 to 219 °C. This molecule also showed an IC50 on Jack bean urease of 0.87 ± 0.09 µM. Further, the “improvement in the activity vs positive control” value at Jack bean urease (vs thiourea) is listed as “around 27 times”. At urease [3], the affinity, expressed as Ki, was 1.37 µM. Moreover, the type of inhibition result on urease [3] (Lineweaver–Burk plot) was “competitive”. In addition, the IC50 in the series on C. neoformans (H99) (setting [5]) was greater than 124 µg/mL. The IC50 with P. mirabilis was 78.2 ± 8.5 µg/mL (≈ 241 µM). In addition, the MIC in the series on Proteus mirabilis stood at 256 mg/L (≈ 789 µM). The MIC in series [2] was greater than 256 mg/L.

`Clc1ccc(CSc2nn3c(-c4ccccc4)nnc3s2)cc1` [Compound 6g, 6-((4-chlorobenzyl)thio)-3-phenyl-[1,2,4]triazolo[3,4-b][1,3,4]thiadiazole] had a melting point of 218 to 220 °C. On Jack bean urease, this molecule yielded an IC50 of 1.68 ± 0.73 µM. Also, the “urease inhibitory activity IC50 (µg/mL) ± SD” value with C. neoformans (H99) (C. neoformans) turned out to be 94.3 ± 5.9 µg/mL. Moreover, the IC50 in the series with C. neoformans (H99) (setting [5]) stood at 93.3 µg/mL (≈ 260 µM). In addition, the IC50 with P. mirabilis amounted to 75.4 ± 6.1 µg/mL (≈ 210 µM). In the series on Proteus mirabilis, the MIC was found to be 256 mg/L (≈ 713 µM). In series [2], the “MFC/MBC” value stood at 4 mg/L (≈ 11.1 µM) and the MIC stood at 2 mg/L (≈ 5.57 µM).

In turn, `Fc1ccc(CSc2nn3c(-c4ccccc4)nnc3s2)cc1` [Compound 6d, 6-((4-fluorobenzyl)thio)-3-phenyl-[1,2,4]triazolo[3,4-b][1,3,4]thiadiazole] yielded a melting point of 199 to 201 °C. In addition, the IC50 at Jack bean urease is 1.01 ± 0.13 µM. In addition, in the series with C. neoformans (H99) (setting [4]), the IC50 was found to be 118 ± 8.6 µg/mL (≈ 344 µM). The IC50 in the series on P. mirabilis amounted to 91 ± 6.4 µg/mL (≈ 266 µM). The MIC with Proteus mirabilis is 256 mg/L (≈ 748 µM). Also, in series [2], the MIC was greater than 256 mg/L.

The molecule `Clc1ccc(CSc2nn3c(-c4ccccc4)nnc3s2)cc1Cl` [Compound 6h, 6-((3,4-dichlorobenzyl)thio)-3-phenyl-[1,2,4]triazolo[3,4-b][1,3,4]thiadiazole] showed a melting point of 215 to 217 °C. Besides, the IC50 on Jack bean urease worked out at 1.41 ± 0.32 µM. Moreover, in the series on C. neoformans (H99) (setting [4]), the IC50 is 83.7 ± 3.2 µg/mL (≈ 213 µM). For the same molecule, in the series on P. mirabilis, the IC50 was found to be 74.5 ± 4.7 µg/mL (≈ 189 µM). Besides, the MIC in the series on Proteus mirabilis is 256 mg/L (≈ 651 µM). In series [2], the “MFC/MBC” value is 0.5 mg/L (≈ 1.27 µM) and the MIC worked out at 0.5 mg/L (≈ 1.27 µM).

(Values after article PMC10287669, “[1,2,4]triazolo[3,4-b][1,3,4]thiadiazole derivatives as new therapeutic candidates against urease positive microorganisms: design, synthesis, pharmacological evaluations, and in silico studies” (Scientific Reports, 2023).)
